{"source": "patent US20230183234A1", "about": "“IAP ANTAGONIST COMPOUNDS AND INTERMEDIATES AND METHODS FOR SYNTHESIZING THE SAME” (Otsuka Pharmaceutical Co., Ltd., priority 2020, published 2023)", "assay": "Storage stability: level of aldehyde impurity of formula (XXV), HPLC peak at RRT 1.3", "format": "physicochemical", "conditions": "stored at 2-8° C.", "description": "Based on experimental data, there is a correlation between the palladium content in the final end-product and drug substance of formula (XXIII) and the oxidative degradation of an aldehyde impurity. […] The degradation is manifested as an aldehyde impurity peak of formula (XXV) appearing at a relative retention time (RRT) of 1.3.\nThis impurity peak is found to be no more than 0.2% a/a when stored at 2-8° C., but higher levels are observed at elevated temperatures. The experimental results are depicted in FIGS. 6-7 and Tables 1, 4 and 5 for drug substance lots and corresponding formulations outlined in Tables 1-3.\nThe stability data and effect of palladium content on aldehyde impurity represented by the area percent of RRT 1.3 at a storage condition of 25° C. and 60% RH is provided in Table 4 and FIG. 6.\nThe effect of temperature on stability and the level of aldehyde impurity represented by the area percent of RRT 1.3 is provided in Table 5 and FIG. 7.", "data": [{"molecule": "C[C@@H]1CN(CC(=O)N2CC(C)(C)c3nc(CO)c(Cc4ccc(F)cc4)cc32)[C@@H](CN2CCOC[C@H]2C)CN1.C[C@H](O)C(=O)O", "note": "[formula (XXIII)]", "values": [{"measurement": "impurity peak level at RRT 1.3 (aldehyde impurity of formula (XXV))", "value": "no more than 0.2 % a/a"}]}]}
